What was measured:
[1] = In vitro EM field-triggered release of fluorescent DNA from nanoparticles embedded in hydrogel (matrigel) plugs; conditions: hydrogel plug; for release on higher power EM field: higher power 3 kW
[2] = mouse, in vivo
Experimental: Phenol red free, growth factor reduced matrigel (400 μl, BD Biosciences) was added to 100 μl of particles. To obtain 1.05% total concentration of particles, 75 μl of DNA-conjugated particles (approximately 3.3 mg/ml) were added to 25 μl of similar 50 nm particles (200 mg/ml, Chemicell). Gels (total volume 500 μl) were mixed at 4° C. to prevent gelation.
Prior to injection of matrigel plugs into mice, approval from the Burnham Institute Animal Use Committee was obtained (AUF 05-054). In these experiments, 500 μl volumes were injected subcutaneous near the posterior mammary fat pad of six athymic nude mice and allowed to gel for 45 minutes. Prior to injection, animals were anesthetized with Avertin® (tribromoethanol) and remained under anesthesia during the remainder of the experiment. Three animals were treated with EM fields for two 5 minute doses, with 15 minutes between field applications (+EMF), while three were not treated (−EMF). […] To quantify penetration depth, 8 images of the tissue/phantom boundary were taken for each animal (3 animals per group, 24 images total). […] Using Metamorph software (Universal Imaging), green fluorescence on the tissue side of the boundary was quantified. For each fluorescent “object,” the area and distance from the tissue boundary was measured. An area-weighted average distance was calculated. […]

| Substance | release on higher power EM field [1] | release on low power EM field pulses ([1]; low power EM field pulses 0.55 kW) | release of fluorescein into surrounding buffer on repeated EM field pulses ([1]; EM field pulses 400 kHz, 1.25 kW, 5 minutes every 40 minutes) | increase of the average distance of fluorescence signal, EM field treated over unexposed controls [2] |
| --- | --- | --- | --- | --- |
| 5′-CGCTGATTCAAGCCGACTAACCGC-3′ (DNA CGCTGATTCAAGCCGACTAACCGC; DNA, backbone and methylation of C not given here; fluorescent dye at 5' end, dye not named) [24 bp, HEX, 5′ HEX-labeled 24 bp complement DNA hybridized to 30 bp parent DNA on magnetite nanoparticles] | simultaneous release of both species |  |  |  |
| 5′-TCG CTG ATT CAA-3′ (DNA TCGCTGATTCAA; DNA, backbone and methylation of C not given here; fluorescent dye at 5' end, dye not named) [12 bp, FAM, 5′ FAM-labeled 12 bp complement DNA hybridized to 30 bp parent DNA on magnetite nanoparticles] | simultaneous release of both species | triggered release predominantly of FAM |  |  |
| 5′-TGA TTC AAG CCG ACT AAC-3′ (DNA TGATTCAAGCCGACTAAC; 5' fluorescein label, further chemistry not given here) |  |  | corresponding release of fluorescein | approximately six-fold |

Reference: patent US20090093551A1, “REMOTELY TRIGGERED RELEASE FROM HEATABLE SURFACES” (priority 2006, published 2009)
